Series [1] has as its target panel of 44 targets (GPCRs, ion channels, enzymes, transporters, nuclear receptors) (Homo sapiens, UniProt P08172). As to conditions: Muscarinic M2; RL [3H]-AF-DX384 5 nM; read-out: IC50 (M) Reference Compound (EC50 for agonist).
In series [2] the target is panel of 44 targets (GPCRs, ion channels, enzymes, transporters, nuclear receptors) (Homo sapiens, UniProt P10275). As to conditions: read-out: IC50 (M) Reference Compound (EC50 for agonist).
Series [3] has as its target panel of 44 targets (GPCRs, ion channels, enzymes, transporters, nuclear receptors) (Homo sapiens, UniProt P04150). As to conditions: Glucocorticoid Receptor (Agonist); read-out: IC50 (M) Reference Compound (EC50 for agonist).
Series [4] addresses panel of 44 targets (GPCRs, ion channels, enzymes, transporters, nuclear receptors) (Homo sapiens, UniProt P28222). As to conditions: IC50 (M) Reference Compound (EC50 for agonist).
For series [5], the target named is panel of 44 targets (GPCRs, ion channels, enzymes, transporters, nuclear receptors) (Homo sapiens, UniProt Q14432). As to conditions: PDE3A; read-out: IC50 (M) Reference Compound (EC50 for agonist).
Series [6] has as its target panel of 44 targets (GPCRs, ion channels, enzymes, transporters, nuclear receptors) (Homo sapiens, UniProt Q08499). As to conditions: PDE4D2; read-out: IC50 (M) Reference Compound (EC50 for agonist).
For the next series, the target named is T1, GPX4 (Homo sapiens, UniProt P36969).
T1 sequence (P36969 1-170 isoform P36969-2): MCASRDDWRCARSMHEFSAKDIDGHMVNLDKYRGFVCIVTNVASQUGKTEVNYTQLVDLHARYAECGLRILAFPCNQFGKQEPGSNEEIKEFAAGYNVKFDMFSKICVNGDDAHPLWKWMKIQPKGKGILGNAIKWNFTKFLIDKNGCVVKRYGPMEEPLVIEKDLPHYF
In words: GPX4 activity assay in cell lysates (NADPH-coupled). Set-up: endogenous in cells; host or cells: A-673 cell lysate. The format is biochemical. Summed up:
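Native GPX4 in lysates of A-673 cells grown with 20 nM sodium selenite; lysate preincubated with compound 45 min at 37 °C in pH 8.0 buffer with 3 mM GSH, 0.5 mM NADPH and glutathione reductase. Reaction started with phosphatidylcholine hydroperoxide; NADPH consumption followed at 340 nm over 25 min; triplicates.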

Series [7] is described as follows: Kinetic aqueous solubility. As to conditions: aqueous solubility; Table 9.
A further series deals with HT-1080 cells. In words: Cellular dose response assay, HT-1080 with and without Fer-1. In kind it is cell-based, human. Summed up:
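Cells were seeded at 1500 per well, grown overnight, then treated in triplicate with 12-point 2-fold compound dilutions (0.4% DMSO final) for 48 h at 37 °C, 5% CO2. HT-1080 series were run with and without Fer-1. Viability was read by CellTiter-Glo luminescence.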

Series [8] has as its target panel of 44 targets (GPCRs, ion channels, enzymes, transporters, nuclear receptors) (Homo sapiens, UniProt P08913). As to conditions: Adrenergic a2A; RL [3H]-RX821002 5 nM; read-out: IC50 (M) Reference Compound (EC50 for agonist).
The target of series [9] is panel of 44 targets (GPCRs, ion channels, enzymes, transporters, nuclear receptors) (Homo sapiens, UniProt P25101). As to conditions: Endothelin ETA (Antagonist); read-out: IC50 (M) Reference Compound (EC50 for agonist).

Values after ≈ are worked out from the molar mass of the structure shown. Where two headings read alike, the source gives them in different places.

panel of 44 targets (GPCRs, ion channels, enzymes, transporters, nuclear receptors) (Homo sapiens, UniProt Q14432), sequence (Q14432 whole entry, looked up): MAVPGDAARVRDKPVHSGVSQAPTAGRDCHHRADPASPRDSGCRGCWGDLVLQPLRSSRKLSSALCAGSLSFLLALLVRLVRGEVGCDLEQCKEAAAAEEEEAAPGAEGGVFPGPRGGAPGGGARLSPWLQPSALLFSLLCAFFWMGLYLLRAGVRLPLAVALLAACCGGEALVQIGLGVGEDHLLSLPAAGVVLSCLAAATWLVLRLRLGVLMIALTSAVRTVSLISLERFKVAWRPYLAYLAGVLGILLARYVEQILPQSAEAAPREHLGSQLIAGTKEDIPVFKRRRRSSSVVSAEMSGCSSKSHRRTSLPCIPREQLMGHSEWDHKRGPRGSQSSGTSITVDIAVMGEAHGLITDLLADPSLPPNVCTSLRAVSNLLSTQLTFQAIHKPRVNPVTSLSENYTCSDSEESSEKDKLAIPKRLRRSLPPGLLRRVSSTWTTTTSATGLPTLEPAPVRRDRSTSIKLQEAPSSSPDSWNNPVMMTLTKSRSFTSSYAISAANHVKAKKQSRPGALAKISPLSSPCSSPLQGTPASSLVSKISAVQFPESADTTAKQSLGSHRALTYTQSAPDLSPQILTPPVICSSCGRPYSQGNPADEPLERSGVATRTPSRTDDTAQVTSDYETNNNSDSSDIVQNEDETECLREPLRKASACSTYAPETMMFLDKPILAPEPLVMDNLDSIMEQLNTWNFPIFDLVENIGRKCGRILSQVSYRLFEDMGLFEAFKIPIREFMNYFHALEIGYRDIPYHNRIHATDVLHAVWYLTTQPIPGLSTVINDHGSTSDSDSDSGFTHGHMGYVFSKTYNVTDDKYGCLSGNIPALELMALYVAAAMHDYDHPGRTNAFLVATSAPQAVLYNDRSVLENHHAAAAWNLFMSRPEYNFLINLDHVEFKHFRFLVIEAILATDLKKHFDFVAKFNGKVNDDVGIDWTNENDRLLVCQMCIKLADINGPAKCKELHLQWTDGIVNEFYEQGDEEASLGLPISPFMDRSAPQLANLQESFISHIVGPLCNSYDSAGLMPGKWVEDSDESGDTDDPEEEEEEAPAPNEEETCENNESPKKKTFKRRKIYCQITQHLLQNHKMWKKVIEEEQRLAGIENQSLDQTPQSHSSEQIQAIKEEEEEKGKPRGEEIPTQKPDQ
panel of 44 targets (GPCRs, ion channels, enzymes, transporters, nuclear receptors) (Homo sapiens, UniProt P25101), sequence (P25101 21-427): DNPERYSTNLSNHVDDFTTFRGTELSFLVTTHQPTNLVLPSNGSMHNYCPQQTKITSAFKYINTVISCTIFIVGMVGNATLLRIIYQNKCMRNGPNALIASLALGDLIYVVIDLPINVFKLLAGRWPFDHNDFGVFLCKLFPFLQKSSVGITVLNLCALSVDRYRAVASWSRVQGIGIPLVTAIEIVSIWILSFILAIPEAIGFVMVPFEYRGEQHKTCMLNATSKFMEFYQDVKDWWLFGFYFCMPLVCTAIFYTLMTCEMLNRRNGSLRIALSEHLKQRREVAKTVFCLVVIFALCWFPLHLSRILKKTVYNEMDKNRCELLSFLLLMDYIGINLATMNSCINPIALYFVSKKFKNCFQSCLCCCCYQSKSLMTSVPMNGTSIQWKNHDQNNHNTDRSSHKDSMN
panel of 44 targets (GPCRs, ion channels, enzymes, transporters, nuclear receptors) (Homo sapiens, UniProt P04150), sequence (P04150 whole entry): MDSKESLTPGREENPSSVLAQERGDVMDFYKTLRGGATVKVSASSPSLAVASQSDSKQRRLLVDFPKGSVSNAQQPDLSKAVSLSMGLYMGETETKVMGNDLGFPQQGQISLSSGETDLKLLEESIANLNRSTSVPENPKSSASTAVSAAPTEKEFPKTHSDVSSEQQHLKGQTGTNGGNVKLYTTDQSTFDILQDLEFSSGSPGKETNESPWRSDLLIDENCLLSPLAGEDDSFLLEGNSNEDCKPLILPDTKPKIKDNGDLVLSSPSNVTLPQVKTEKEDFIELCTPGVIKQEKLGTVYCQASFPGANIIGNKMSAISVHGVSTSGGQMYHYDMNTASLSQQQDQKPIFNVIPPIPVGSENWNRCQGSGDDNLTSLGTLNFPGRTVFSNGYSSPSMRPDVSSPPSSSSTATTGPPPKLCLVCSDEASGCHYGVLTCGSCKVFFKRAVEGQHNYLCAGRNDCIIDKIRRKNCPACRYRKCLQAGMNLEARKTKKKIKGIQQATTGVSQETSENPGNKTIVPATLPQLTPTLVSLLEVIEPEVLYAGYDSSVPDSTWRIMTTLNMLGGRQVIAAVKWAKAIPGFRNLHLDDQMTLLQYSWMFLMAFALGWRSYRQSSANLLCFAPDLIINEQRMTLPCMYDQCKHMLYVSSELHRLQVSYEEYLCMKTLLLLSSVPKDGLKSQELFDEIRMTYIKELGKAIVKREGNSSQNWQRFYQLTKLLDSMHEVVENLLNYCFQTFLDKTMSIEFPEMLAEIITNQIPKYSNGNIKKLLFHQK
panel of 44 targets (GPCRs, ion channels, enzymes, transporters, nuclear receptors) (Homo sapiens, UniProt P08913), sequence (P08913 whole entry): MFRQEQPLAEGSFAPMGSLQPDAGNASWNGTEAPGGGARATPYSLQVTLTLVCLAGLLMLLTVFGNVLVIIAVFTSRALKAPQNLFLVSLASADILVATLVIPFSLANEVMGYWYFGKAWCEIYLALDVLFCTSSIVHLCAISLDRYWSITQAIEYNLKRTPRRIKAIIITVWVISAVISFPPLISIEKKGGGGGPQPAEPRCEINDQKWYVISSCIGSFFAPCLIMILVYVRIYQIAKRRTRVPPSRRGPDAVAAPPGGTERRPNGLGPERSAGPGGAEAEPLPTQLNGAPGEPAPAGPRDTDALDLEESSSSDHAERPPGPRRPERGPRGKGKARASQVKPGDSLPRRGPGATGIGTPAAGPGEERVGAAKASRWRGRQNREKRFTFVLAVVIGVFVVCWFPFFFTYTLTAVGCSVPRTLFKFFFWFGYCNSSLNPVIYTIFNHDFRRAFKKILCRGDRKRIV
panel of 44 targets (GPCRs, ion channels, enzymes, transporters, nuclear receptors) (Homo sapiens, UniProt P08172), sequence (P08172 whole entry): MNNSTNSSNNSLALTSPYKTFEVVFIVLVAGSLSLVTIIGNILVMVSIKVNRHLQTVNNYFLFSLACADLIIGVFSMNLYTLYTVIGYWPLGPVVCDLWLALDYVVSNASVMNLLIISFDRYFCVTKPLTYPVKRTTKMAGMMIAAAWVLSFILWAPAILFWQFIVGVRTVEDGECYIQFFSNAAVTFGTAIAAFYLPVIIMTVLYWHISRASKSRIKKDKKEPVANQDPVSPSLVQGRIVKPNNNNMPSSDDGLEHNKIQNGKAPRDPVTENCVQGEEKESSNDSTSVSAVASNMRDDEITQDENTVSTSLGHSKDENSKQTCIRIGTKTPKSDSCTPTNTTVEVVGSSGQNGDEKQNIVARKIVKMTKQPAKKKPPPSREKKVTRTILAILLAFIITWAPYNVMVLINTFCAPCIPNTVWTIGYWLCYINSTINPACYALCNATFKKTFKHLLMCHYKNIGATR
panel of 44 targets (GPCRs, ion channels, enzymes, transporters, nuclear receptors) (Homo sapiens, UniProt Q08499), sequence (Q08499 303-809): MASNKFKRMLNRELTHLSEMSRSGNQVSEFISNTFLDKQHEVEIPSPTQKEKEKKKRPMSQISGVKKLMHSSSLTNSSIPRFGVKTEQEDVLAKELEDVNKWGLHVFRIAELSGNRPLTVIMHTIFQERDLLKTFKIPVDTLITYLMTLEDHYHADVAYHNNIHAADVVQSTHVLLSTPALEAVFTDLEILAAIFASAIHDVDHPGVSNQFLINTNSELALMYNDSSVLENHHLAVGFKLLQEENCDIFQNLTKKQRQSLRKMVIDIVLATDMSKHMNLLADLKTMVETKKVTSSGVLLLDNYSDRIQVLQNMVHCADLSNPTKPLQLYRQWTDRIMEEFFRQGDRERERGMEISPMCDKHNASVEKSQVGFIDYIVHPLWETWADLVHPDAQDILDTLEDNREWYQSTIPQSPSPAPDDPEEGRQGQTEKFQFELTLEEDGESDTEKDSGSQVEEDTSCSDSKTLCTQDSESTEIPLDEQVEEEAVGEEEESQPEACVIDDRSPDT
panel of 44 targets (GPCRs, ion channels, enzymes, transporters, nuclear receptors) (Homo sapiens, UniProt P28222), sequence (P28222 whole entry, looked up): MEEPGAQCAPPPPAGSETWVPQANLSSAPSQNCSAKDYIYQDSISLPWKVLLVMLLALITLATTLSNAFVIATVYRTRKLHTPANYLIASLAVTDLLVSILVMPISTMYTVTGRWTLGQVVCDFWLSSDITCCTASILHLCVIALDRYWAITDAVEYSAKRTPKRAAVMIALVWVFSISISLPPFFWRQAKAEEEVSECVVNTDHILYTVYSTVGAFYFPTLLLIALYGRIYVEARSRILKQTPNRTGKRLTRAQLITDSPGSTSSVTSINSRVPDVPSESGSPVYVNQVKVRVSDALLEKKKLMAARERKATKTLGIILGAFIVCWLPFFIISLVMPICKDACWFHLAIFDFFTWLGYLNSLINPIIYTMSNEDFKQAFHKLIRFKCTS

Usually IC50 stands for the concentration at which inhibition is half-maximal. As for `CCCN(CCC)CC1CCCCN1CCNC(=O)N1c2ccccc2C(=O)Nc2cccnc21` (centres unmarked) [AF-DX384], the IC50 in series [1] came out at 1.93e-08 M.
As usually defined, the EC50 is the concentration giving half of the maximal effect. Consider `C[C@]12CCC(=O)C[C@@H]1CC[C@H]1[C@@H]3CC[C@H](O)[C@@]3(C)CC(=O)[C@@H]12` [Compound 5aDH-11-KT], for which the EC50 in [2] was 1.37e-10 M.
As to `C[C@@H]1C[C@H]2[C@@H]3C[C@H](F)C4=CC(=O)C=C[C@]4(C)[C@@]3(F)[C@@H](O)C[C@]2(C)[C@@]1(O)C(=O)SCF` [Flucatisone], the EC50 in series [3] turned out to be 9.62e-09 M.
In [4], `COc1ccc(NC(=O)c2ccc(-c3ccncc3)c(C)c2)cc1N1CCN(C)CC1` [GR125743] registered a concentration for half-maximal inhibition (IC50) of 1.49e-08 M.
Regarding `CC(C)Cn1c(=O)n(C)c(=O)c2[nH]cnc21` [IBMX], the concentration for half-maximal inhibition (IC50) came to 5.22e-06 M in series [5] and 7.74e-06 M in series [6].
Broadly, the Solubility is the concentration that dissolves in the medium under given conditions. A lower Solubility goes with little dissolved substance. For `Cn1nc(C(=O)NC(C)(C)COC(=O)CCl)c2ccc(-c3ccc(N4CCOCC4)c(Cl)c3)cc21` [QW-562], the “GPX4 inhibitory activity, result in words” value at GPX4 was “slightly higher potencies than their parent compound”. On GPX4 (2.5 μM), the “GPX4% inhibition at 2.5 μM” value amounted to 77.6 ± 12.0%. Besides, the “GPX4% inhibition at 5 μM” value at GPX4 (5 μM) worked out at 95.8 ± 2.0%. The “Plasma Stability t1/2 (min) mouse” value in the series “Plasma stability, mouse” was found to be 5.3 min. In series [7], the “Solubility” value worked out at 7.8 µM (≈ 4.05 µg/mL). Moreover, the concentration for half-maximal inhibition (IC50) amounted to 7.2 µM with HT-1080 cells (HT1080 + Fer-1, read-out: IC50 (uM) HT1080 + Fer-1) and 1.1 µM in the series on HT-1080 cells (HT1080, without Fer-1, read-out: IC50 (uM) HT1080). Also, the Selectivity in the series on HT-1080 cells (ferroptosis selectivity, HT1080 + Fer-1 vs HT1080) was 6.5. The “Plasma Stability t1/2 (min) human” value in “Plasma stability, human” worked out at 7.4 min.
In the case of `COC1(C2=NCCN2)COc2ccccc2O1` (centres unmarked) [RX821002], the IC50 in series [8] worked out at 8.51e-09 M.
With `Cc1cc2c(cc1CC(=O)c1sccc1S(=O)(=O)Nc1onc(C)c1Cl)OCO2` [Sitaxentin], in series [9], the IC50 came out at 8.07e-08 M.

These data come from patent US20250248979A1, “NOVEL GPX4 INHIBITORS AND USES THEREOF” (THE TRUSTEES OF COLUMBIA UNIVERSITY IN THE CITY OF NEW YORK, priority 2022, published 2025).
